Test results published in patent US20100029657A1, “Bridged, Bicyclic Heterocyclic or Spiro Bicyclic Heterocyclic Derivatives of Pyrazolo[1, 5-A]Pyrimidines, Methods for Preparation and Uses Thereof” (Wyeth, priority 2008, published 2010).

Molecular target: T1, Flag/GST-tagged recombinant human B-Raf (Homo sapiens, UniProt P15056)
T1 construct: Flag; GST; made in house; host or cells: Sf9 insect cells (B-Raf); E. coli (MEK1-GST)
Test: B-Raf kinase assay (phosphorylation of GST-MEK1, phospho-MEK1 antibody/Europium detection)
Type: biochemical
Details: B-Raf IC50 Data for compounds of Formula A; read-out: Mean IC50
Outline: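 Active B-Raf (0.2 nM) phosphorylates GST-MEK1 in 20 mM MOPS pH 7.2 buffer with DTT, vanadate and 0.01% Triton X-100. The Mg/ATP cocktail (200 μM ATP, 40 mM MgCl2) is added, then incubation runs 45 min at RT. Product is captured on anti-GST plates and detected by anti-phospho-MEK1 plus Europium-anti-rabbit fluorescence, giving % inhibition per concentration.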

T1 sequence (P15056 whole entry): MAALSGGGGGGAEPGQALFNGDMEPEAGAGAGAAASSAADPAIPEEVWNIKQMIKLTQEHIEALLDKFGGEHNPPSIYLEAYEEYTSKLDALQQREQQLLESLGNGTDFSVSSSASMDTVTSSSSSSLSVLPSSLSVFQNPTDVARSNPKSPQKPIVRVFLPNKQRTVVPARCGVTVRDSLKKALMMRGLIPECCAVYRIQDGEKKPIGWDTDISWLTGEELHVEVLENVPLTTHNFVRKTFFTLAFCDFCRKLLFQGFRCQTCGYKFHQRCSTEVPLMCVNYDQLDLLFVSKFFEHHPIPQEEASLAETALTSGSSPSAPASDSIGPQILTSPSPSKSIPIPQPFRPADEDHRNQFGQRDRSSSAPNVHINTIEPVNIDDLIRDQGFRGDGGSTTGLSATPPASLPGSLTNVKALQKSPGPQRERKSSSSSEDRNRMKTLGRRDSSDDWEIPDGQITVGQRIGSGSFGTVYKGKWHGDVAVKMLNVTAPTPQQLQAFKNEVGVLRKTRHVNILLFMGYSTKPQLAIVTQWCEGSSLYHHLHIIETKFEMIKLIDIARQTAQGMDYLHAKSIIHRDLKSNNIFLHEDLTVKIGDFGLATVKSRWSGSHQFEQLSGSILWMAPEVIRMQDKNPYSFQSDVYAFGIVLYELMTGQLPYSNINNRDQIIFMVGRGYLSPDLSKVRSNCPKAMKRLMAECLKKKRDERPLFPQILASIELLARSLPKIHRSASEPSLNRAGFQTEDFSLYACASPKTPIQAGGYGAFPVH

IC50 [nM] | Compound
0.5 | Fc1c(-c2ccnc3c(-c4cccc5[nH]ncc45)c(-c4ccncc4)nn23)ccc(N2C[C@@H]3C[C@H]2CN3)c1F [Example 162, 7-{4-[(1S,4S)-2,5-diazabicyclo[2.2.1]hept-2-yl]-2,3-difluorophenyl}-3-(1H-indazol-4-yl)-2-pyridin-4-ylpyrazolo[1,5-a]pyrimidine]
< 0.3 | CC(C)N1C[C@@H]2C[C@H]1CN2c1cc(F)c(-c2ccnc3c(-c4cccc5[nH]ncc45)c(-c4ccncc4)nn23)c(F)c1 [Example 169, 7-{2,6-difluoro-4-[(1S,4S)-5-isopropyl-2,5-diazabicyclo[2.2.1]hept-2-yl]phenyl}-3-(1H-indazol-4-yl)-2-pyridin-4-ylpyrazolo[1,5-a]pyrimidine]
0.4 | CN1C[C@@H]2CC[C@H]1CN2c1ccc(-c2ccnc3c(-c4cccc5[nH]ncc45)c(-c4ccncc4)nn23)c(F)c1 [Example 173, 7-{2-fluoro-4-[(1S,4S)-5-methyl-2,5-diazabicyclo[2.2.2]oct-2-yl]phenyl}-3-(1H-indazol-4-yl)-2-pyridin-4-ylpyrazolo[1,5-a]pyrimidine]
1 | CC(C)(C)OC(=O)N1C[C@@H]2C[C@H]1CN2c1ccc(-c2ccnc3c(-c4ccc(F)c5[nH]ncc45)c(-c4ccncc4)nn23)c(Cl)c1 [Example 175, tert-butyl (1S,4S)-5-{3-chloro-4-[3-(7-fluoro-1H-indazol-4-yl)-2-pyridin-4-ylpyrazolo[1,5-a]pyrimidin-7-yl]phenyl}-2,5-diazabicyclo[2.2.1]heptane-2-carboxylate]
1 | Fc1ccc(-c2c(-c3ccncc3)nn3c2nccc3[C@H]2CC[C@@H](N3C[C@@H]4C[C@H]3CN4)CC2)c2cn[nH]c12 [Example 176, 7-{cis-4-[(1S,4S)-2,5-diazabicyclo[2.2.1]hept-2-yl]cyclohexyl}-3-(7-fluoro-1H-indazol-4-yl)-2-pyridin-4-ylpyrazolo[1,5-a]pyrimidine]
< 0.3 | Fc1ccc(-c2c(-c3ccncc3)nn3c2nccc3[C@H]2CC[C@H](N3C[C@@H]4C[C@H]3CN4)CC2)c2cn[nH]c12 [Example 183, 7-{trans-4-[(1S,4S)-2,5-diazabicyclo[2.2.1]hept-2-yl]cyclohexyl}-3-(7-fluoro-1H-indazol-4-yl)-2-pyridin-4-ylpyrazolo[1,5-a]pyrimidine]
< 0.3 | Fc1ccc(-c2c(-c3ccncc3)nn3c(-c4ccc(N5C[C@@H]6C[C@H]5CN6)cc4Cl)ccnc23)c2cn[nH]c12 [Example 184, 7-{2-chloro-4-[(1S,4S)-2,5-diazabicyclo[2.2.1]hept-2-yl]phenyl}-3-(7-fluoro-1H-indazol-4-yl)-2-pyridin-4-ylpyrazolo[1,5-a]pyrimidine]
1.1 | FC(F)(F)c1cc(N2C[C@@H]3C[C@H]2CN3)ccc1-c1ccnc2c(-c3cccc4[nH]ncc34)c(-c3ccncc3)nn12 [Example 186, 7-{4-[(1S,4S)-2,5-diazabicyclo[2.2.1]hept-2-yl]-2-(trifluoromethyl)phenyl}-3-(1H-indazol-4-yl)-2-pyridin-4-ylpyrazolo[1,5-a]pyrimidine]
< 0.3 | Brc1cc(N2C[C@@H]3C[C@H]2CN3)ccc1-c1ccnc2c(-c3cccc4[nH]ncc34)c(-c3ccncc3)nn12 [Example 187, 7-{2-bromo-4-[(1S,4S)-2,5-diazabicyclo[2.2.1]hept-2-yl]phenyl}-3-(1H-indazol-4-yl)-2-pyridin-4-ylpyrazolo[1,5-a]pyrimidine]
1.9 | CN1C[C@@H]2C[C@H]1CN2c1ccc(-c2ccnc3c(-c4cccc5[nH]ncc45)c(-c4ccncc4)nn23)cc1F [Example 188, 7-{3-fluoro-4-[(1S,4S)-5-methyl-2,5-diazabicyclo[2.2.1]hept-2-yl]phenyl}-3-(1H-indazol-4-yl)-2-pyridin-4-ylpyrazolo[1,5-a]pyrimidine]

Further lines, the molecule ahead of its results:

Compound | IC50 [nM]
Fc1cc(N2C[C@@H]3C[C@H]2CN3)c(F)cc1-c1ccnc2c(-c3cccc4[nH]ncc34)c(-c3ccncc3)nn12 [Example 163, 7-{4-[(1S,4S)-2,5-diazabicyclo[2.2.1]hept-2-yl]-2,5-difluorophenyl}-3-(1H-indazol-4-yl)-2-pyridin-4-ylpyrazolo[1,5-a]pyrimidine] | < 0.3
CN1C[C@@H]2C[C@H]1CN2c1c(F)cc(-c2ccnc3c(-c4cccc5[nH]ncc45)c(-c4ccncc4)nn23)cc1F [Example 164, 7-{3,5-difluoro-4-[(1S,4S)-5-methyl-2,5-diazabicyclo[2.2.1]hept-2-yl]phenyl}-3-(1H-indazol-4-yl)-2-pyridin-4-ylpyrazolo[1,5-a]pyrimidine] | 9.6
CN1C[C@@H]2C[C@H]1CN2c1ccc(-c2ccnc3c(-c4cccc5[nH]ncc45)c(-c4ccncc4)nn23)c(F)c1F [Example 165, 7-{2,3-difluoro-4-[(1S,4S)-5-methyl-2,5-diazabicyclo[2.2.1]hept-2-yl]phenyl}-3-(1H-indazol-4-yl)-2-pyridin-4-ylpyrazolo[1,5-a]pyrimidine] | 0.6
CN1C[C@@H]2C[C@H]1CN2c1cc(F)c(-c2ccnc3c(-c4cccc5[nH]ncc45)c(-c4ccncc4)nn23)cc1F [Example 166, 7-{2,5-difluoro-4-[(1S,4S)-5-methyl-2,5-diazabicyclo[2.2.1]hept-2-yl]phenyl}-3-(1H-indazol-4-yl)-2-pyridin-4-ylpyrazolo[1,5-a]pyrimidine] | 0.4
CCN1C[C@@H]2C[C@H]1CN2c1cc(F)c(-c2ccnc3c(-c4cccc5[nH]ncc45)c(-c4ccncc4)nn23)c(F)c1 [Example 167, 7-{4-[(1S,4S)-5-ethyl-2,5-diazabicyclo[2.2.1]hept-2-yl]-2,6-difluorophenyl}-3-(1H-indazol-4-yl)-2-pyridin-4-ylpyrazolo[1,5-a]pyrimidine] | < 0.3
CC(C)CN1C[C@@H]2C[C@H]1CN2c1cc(F)c(-c2ccnc3c(-c4cccc5[nH]ncc45)c(-c4ccncc4)nn23)c(F)c1 [Example 168, 7-{2,6-difluoro-4-[(1S,4S)-5-isobutyl-2,5-diazabicyclo[2.2.1]hept-2-yl]phenyl}-3-(1H-indazol-4-yl)-2-pyridin-4-ylpyrazolo[1,5-a]pyrimidine] | < 0.3
Fc1cc(N2C[C@@H]3C[C@H]2CN3C2CCC2)cc(F)c1-c1ccnc2c(-c3cccc4[nH]ncc34)c(-c3ccncc3)nn12 [Example 170, 7-{4-[(1S,4S)-5-cyclobutyl-2,5-diazabicyclo[2.2.1]hept-2-yl]-2,6-difluorophenyl}-3-(1H-indazol-4-yl)-2-pyridin-4-ylpyrazolo[1,5-a]pyrimidine] | < 0.3
Fc1cc(N2C[C@@H]3CC[C@H]2CN3)ccc1-c1ccnc2c(-c3cccc4[nH]ncc34)c(-c3ccncc3)nn12 [Example 172, 7-{4-[(1S,4S)-2,5-diazabicyclo[2.2.2]oct-2-yl]-2-fluorophenyl}-3-(1H-indazol-4-yl)-2-pyridin-4-ylpyrazolo[1,5-a]pyrimidine] | 0.3
CN1C[C@@H]2C[C@H]1CN2c1c(F)c(F)c(-c2ccnc3c(-c4cccc5[nH]ncc45)c(-c4ccncc4)nn23)c(F)c1F [Example 174, 3-(1H-indazol-4-yl)-2-pyridin-4-yl-7-{2,3,5,6-tetrafluoro-4-[(1S,4S)-5-methyl-2,5-diazabicyclo[2.2.1]hept-2-yl]phenyl}pyrazolo[1,5-a]pyrimidine] | 0.4
Fc1ccc(-c2c(-c3ccncc3)nn3c2nccc3[C@H]2CC[C@@H](N3C[C@@H]4C[C@H]3CO4)CC2)c2cn[nH]c12 [Example 177, 3-(7-fluoro-1H-indazol-4-yl)-7-{cis-4-[(1S,4S)-2-oxa-5-azabicyclo[2.2.1]hept-5-yl]cyclohexyl}-2-pyridin-4-ylpyrazolo[1,5-a]pyrimidine] | 4
Fc1ccc(-c2c(-c3ccncc3)nn3c2nccc3[C@H]2CC[C@H](N3C[C@@H]4C[C@H]3CO4)CC2)c2cn[nH]c12 [Example 178, 3-(7-fluoro-1H-indazol-4-yl)-7-{trans-4-[(1S,4S)-2-oxa-5-azabicyclo[2.2.1]hept-5-yl]cyclohexyl}-2-pyridin-4-ylpyrazolo[1,5-a]pyrimidine] | 6.7
Fc1cc(-c2ccnc3c(-c4cccc5[nH]ncc45)c(-c4ccncc4)nn23)ccc1N1C[C@@H]2C[C@H]1CN2 [Example 185, 7-{4-[(1S,4S)-2,5-diazabicyclo[2.2.1]hept-2-yl]-3-fluorophenyl}-3-(1H-indazol-4-yl)-2-pyridin-4-ylpyrazolo[1,5-a]pyrimidine] | 1.7
CN1C[C@@H]2C[C@H]1CN2c1ccc(-c2ccnc3c(-c4cccc5[nH]ncc45)c(-c4ccncc4)nn23)c(C(F)(F)F)c1 [Example 189, 3-(1H-indazol-4-yl)-7-{4-[(1S,4S)-5-methyl-2,5-diazabicyclo[2.2.1]hept-2-yl]-2-(trifluoromethyl)phenyl}-2-pyridin-4-ylpyrazolo[1,5-a]pyrimidine] | 1.4
CN1C[C@@H]2C[C@H]1CN2c1ccc(-c2ccnc3c(-c4cccc5[nH]ncc45)c(-c4ccncc4)nn23)c(Br)c1 [Example 190, 7-{2-bromo-4-[(1S,4S)-5-methyl-2,5-diazabicyclo[2.2.1]hept-2-yl]phenyl}-3-(1H-indazol-4-yl)-2-pyridin-4-ylpyrazolo[1,5-a]pyrimidine] | < 0.3
C1=C(c2ccnc3c(-c4cccc5[nH]ncc45)c(-c4ccncc4)nn23)CCC2(C1)OCCO2 [Example 191, 7-(1,4-dioxaspiro[4.5]dec-7-en-8-yl)-3-(1H-indazol-4-yl)-2-pyridin-4-ylpyrazolo[1,5-a]pyrimidine] | 56.1
C[N+]1([O-])C[C@@H]2C[C@H]1CN2c1cc(F)c(-c2ccnc3c(-c4cccc5[nH]ncc45)c(-c4ccncc4)nn23)c(F)c1 (stereo partly drawn) [Example 192, 7-{2,6-difluoro-4-[(1S,4S)-5-methyl-5-oxido-2,5-diazabicyclo[2.2.1]hept-2-yl]phenyl}-3-(1H-indazol-4-yl)-2-pyridin-4-ylpyrazolo[1,5-a]pyrimidine] | 0.4
